# In the supplement of paper PMC10307832:
# Columns and labels:
# Assay in all cases: relative viability (nuclei count vs DMSO), 5 days (fraction); higher = more cells survive
# Crenolanib + Dasatinib = compound: CC1(COc2ccc3c(c2)ncn3-c2ccc3cccc(N4CCC(N)CC4)c3n2)COC1 [Crenolanib] + Cc1nc(Nc2ncc(C(=O)Nc3c(C)cccc3Cl)s2)cc(N2CCN(CCO)CC2)n1 [Dasatinib] (partner 0.075 µM)
# Method in brief: (§1)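 Lung cancer cell lines were pin-tool dosed in 1536-well plates on the day after seeding, with either a lone drug or a fixed anchor-drug dose plus five library-drug doses (not always all listed) in √10 steps. Nuclei were counted on 4× images after 5 days. Relative viability is the ratio of treated-well to vehicle-well nuclei counts, with each value a median of duplicate plates.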
# Crenolanib + Pemetrexed = compound: CC1(COc2ccc3c(c2)ncn3-c2ccc3cccc(N4CCC(N)CC4)c3n2)COC1 [Crenolanib] + Nc1nc2[nH]cc(CCc3ccc(C(=O)N[C@@H](CCC(=O)O)C(=O)O)cc3)c2c(=O)[nH]1 [Pemetrexed] (partner 0.2 µM)
# Method in brief: as §1
# Crenolanib + Linsitinib = compound: CC1(COc2ccc3c(c2)ncn3-c2ccc3cccc(N4CCC(N)CC4)c3n2)COC1 [Crenolanib] + C[C@]1(O)C[C@@H](c2nc(-c3ccc4ccc(-c5ccccc5)nc4c3)c3c(N)nccn32)C1 [Linsitinib] (partner 1 µM)
# Method in brief: as §1
# Tivantinib + Lapatinib = compound: O=C1NC(=O)[C@@H](c2cn3c4c(cccc24)CCC3)[C@@H]1c1c[nH]c2ccccc12 [Tivantinib] + CS(=O)(=O)CCNCc1ccc(-c2ccc3ncnc(Nc4ccc(OCc5cccc(F)c5)c(Cl)c4)c3c2)o1 [Lapatinib] (partner 2 µM)
# Method in brief: as §1
Cell Line,relative viability (Crenolanib + Dasatinib; first compound 0.01 µM),relative viability (Crenolanib + Dasatinib; first compound 0.03162 µM),relative viability (Crenolanib + Dasatinib; first compound 0.1 µM),relative viability (Crenolanib + Dasatinib; first compound 0.3162 µM),relative viability (Crenolanib + Dasatinib; first compound 1 µM),relative viability (Crenolanib + Pemetrexed; first compound 0.01 µM),relative viability (Crenolanib + Pemetrexed; first compound 0.03162 µM),relative viability (Crenolanib + Pemetrexed; first compound 0.1 µM),relative viability (Crenolanib + Pemetrexed; first compound 0.3162 µM),relative viability (Crenolanib + Pemetrexed; first compound 1 µM),relative viability (Crenolanib + Linsitinib; first compound 0.01 µM),relative viability (Crenolanib + Linsitinib; first compound 0.03162 µM),relative viability (Crenolanib + Linsitinib; first compound 0.1 µM),relative viability (Crenolanib + Linsitinib; first compound 0.3162 µM),relative viability (Crenolanib + Linsitinib; first compound 1 µM),relative viability (Tivantinib + Lapatinib; first compound 0.01 µM),relative viability (Tivantinib + Lapatinib; first compound 0.03162 µM),relative viability (Tivantinib + Lapatinib; first compound 0.1 µM),relative viability (Tivantinib + Lapatinib; first compound 0.3162 µM)
NCI-H2342,0.338,0.304,0.307,0.338,0.316,0.749,0.72,0.691,0.771,0.754,–,–,–,–,–,–,–,–,–
SK-MES-1,0.39,0.448,0.358,0.409,0.358,1.06,0.964,0.886,0.967,0.929,1.09,1.13,0.945,1.13,1.04,0.441,0.426,0.387,0.417
EPLC-272H,0.35,0.349,0.317,0.391,0.532,0.322,0.342,0.346,0.336,0.353,–,1.19,0.982,1.18,1.06,1.08,0.711,0.846,0.383
HCC-44,–,–,–,–,–,0.639,0.662,0.707,0.632,0.642,0.674,0.67,0.638,0.673,0.629,1.02,1.04,0.998,1
201T,0.603,0.602,0.569,0.528,0.614,0.324,0.323,0.34,0.322,0.338,1.05,1.04,1.01,1.04,1.11,1.08,1.01,1.04,1.14
HOP-62,0.658,0.703,0.578,0.769,0.684,0.322,0.345,0.373,0.362,0.417,0.94,0.764,0.906,1.04,1.01,1.15,–,0.956,1.16
NCI-H650,0.493,0.472,0.425,0.404,0.356,1.03,1.01,0.93,0.932,0.918,1.06,0.969,0.952,0.923,0.715,0.907,–,1.02,0.964
NCI-H2085,0.27,0.26,0.263,0.216,0.315,–,0.88,0.878,0.936,0.949,0.998,0.896,0.913,0.932,0.873,0.824,0.77,0.765,0.82
NCI-H596,0.716,0.655,0.627,0.675,0.538,0.462,0.481,0.47,0.513,0.507,1.01,0.994,0.97,0.961,1.18,1.04,1.05,1.01,0.964
